Data published in the supplement of paper PMC10307832.

Key:
Experiment in all cases: relative viability (nuclei count vs DMSO), 5 days (fraction); higher = more cells survive
[1] = compound: COc1cccc2c1C(=O)c1c(O)c3c(c(O)c1C2=O)C[C@@](O)(C(=O)CO)C[C@@H]3O[C@H]1C[C@H](N)[C@H](O)[C@H](C)O1 [Doxorubicin] + CS(=O)(=O)CCNCc1ccc(-c2ccc3ncnc(Nc4ccc(OCc5cccc(F)c5)c(Cl)c4)c3c2)o1 [Lapatinib] (partner 2 µM)
Procedure, shortened: (§1)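 Lung cancer cell lines were seeded in 1536-well plates and dosed by pin tool the next day, with either a single drug or a fixed anchor-drug dose combined with five library-drug doses (not always all listed) spaced in √10 steps. Five days later, one step fixed the cells and stained their nuclei (final 0.05% Triton X-100, 1% formaldehyde, 1 ug/ml Hoechst), and nuclei were counted on 4× images. Relative viability is the nuclei count in treated wells divided by the count in vehicle wells, and each value is the median of duplicate plates.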

[2] = compound: COC1=C(C=C(C=C1)C2=CC3=NC=CN3C(=N2)NC4=C(C=CC=N4)C(=O)N)OC [BAY61-3606] + CS(=O)(=O)N1CCN(Cc2cc3nc(-c4cccc5[nH]ncc45)nc(N4CCOCC4)c3s2)CC1 [Pictilisib] (partner 1 µM)
Procedure, shortened: as §1

[3] = compound: COC1=C(C=C(C=C1)C2=CC3=NC=CN3C(=N2)NC4=C(C=CC=N4)C(=O)N)OC [BAY61-3606] + CS(=O)(=O)CCNCc1ccc(-c2ccc3ncnc(Nc4ccc(OCc5cccc(F)c5)c(Cl)c4)c3c2)o1 [Lapatinib] (partner 2 µM)
Procedure, shortened: as §1

[4] = compound: COc1cccc2c1C(=O)c1c(O)c3c(c(O)c1C2=O)C[C@@](O)(C(=O)CO)C[C@@H]3O[C@H]1C[C@H](N)[C@H](O)[C@H](C)O1 [Doxorubicin] + Cc1nc(NC(=O)N2CCC[C@H]2C(N)=O)sc1-c1ccnc(C(C)(C)C(F)(F)F)c1 [Alpelisib] (partner 2 µM)
Procedure, shortened: as §1

Cell Line	relative viability ([1]; first compound 0.001 µM)	relative viability ([1]; first compound 0.003162 µM)	relative viability ([1]; first compound 0.01 µM)	relative viability ([1]; first compound 0.03162 µM)	relative viability ([1]; first compound 0.1 µM)	relative viability ([2]; first compound 0.02 µM)	relative viability ([2]; first compound 0.06325 µM)	relative viability ([2]; first compound 0.2 µM)	relative viability ([2]; first compound 0.6325 µM)	relative viability ([2]; first compound 2 µM)	relative viability ([3]; first compound 0.02 µM)	relative viability ([3]; first compound 0.06325 µM)	relative viability ([3]; first compound 0.2 µM)	relative viability ([3]; first compound 0.6325 µM)	relative viability ([3]; first compound 2 µM)	relative viability ([4]; first compound 0.001 µM)	relative viability ([4]; first compound 0.003162 µM)	relative viability ([4]; first compound 0.01 µM)	relative viability ([4]; first compound 0.03162 µM)	relative viability ([4]; first compound 0.1 µM)
Calu-6	0.959	1.05	0.678	0.261	0.221	0.963	1.01	0.957	0.932	0.659	1.09	1.23	1.09	1.02	0.923	1.09	1.01	0.866	0.529	0.295
NCI-H2009	0.912	0.245	0.763	0.376	0.283	0.897	0.849	0.851	0.751	0.52	1	0.971	0.937	0.962	0.861	1.08	1.2	1.17	1.07	0.478
NCI-H23		1.1	0.852	0.481	0.43	0.743	0.522	0.49	0.522	0.382	1.16	1.39	1.11	0.985	0.95		0.716	0.555	0.517	0.662
NCI-H2405		1.07	1.05	0.639	0.301	0.623	0.308	0.379	0.371	0.43	1.26	0.886	1.05	1.14	1.07		0.728	0.82	0.663	0.406
HCC-44	0.988	1.02	0.954	0.979	0.815	0.581	0.651	0.634	0.684	0.561	1.02	1.02	1.02	1.06	1.21	0.823	0.801	0.751	0.78	0.93
EMC-BAC-2	0.943	0.956	0.801	0.415	0.269	0.602	0.522	0.47	0.632	0.527	0.882	0.969	0.861	1.11	0.921	0.799	0.88	0.679	0.734	0.717
NCI-H322M	0.636	0.563	0.547	0.521	0.569	0.506	0.529	0.516	0.523	0.482	0.622	0.612	0.596	0.599	0.553	0.916	0.77	0.924	0.769	0.777
SK-MES-1	0.423	0.444	0.489	0.396	0.409	0.393	0.337	0.333	0.354	0.315	0.594	0.483	0.469	0.424	0.42	0.956	0.877	0.819	0.785	0.573
NCI-H2170	0.263	0.264	0.259	0.266	0.285	0.368	0.28	0.308	0.389	0.265	0.236	0.272	0.257	0.262	0.279	0.896	0.966	0.727	0.682	0.877
EPLC-272H	0.918	0.906	0.919	0.944	0.989	0.442	0.373	0.264	0.25	0.248	1.18	0.809	0.876	0.878	0.808	0.898	1.04	0.913	0.902	1.02
EBC-1	0.236	0.21	0.22	0.195	0.181	0.463	0.359	0.404	0.547	0.411	0.218	0.228	0.181	0.243	0.244	0.835	0.921	0.823	0.61	0.405
NCI-H1975	0.887	0.902	0.719	0.253	0.202	0.354	0.238	0.253	0.262	0.19	0.996	0.881	0.963	0.925	0.595	0.64	0.597	0.625	0.334	0.232
NCI-H727	0.76	0.784	0.792	0.666	0.681	0.443	0.4	0.392	0.386	0.267	0.701	0.742	0.82	0.983	0.753	0.45	0.617	0.55	0.469	0.705
NCI-H520	0.881	0.965	0.753	0.48	0.248	0.316	0.32	0.329	0.261	0.317	0.9	1.05	0.901	0.959	0.729	0.903	1.05	0.858	0.732	0.738
NCI-H1355	0.952	1.08	0.963	0.888	0.856	0.508	0.378	0.389	0.374	0.302	1.07	0.907	0.926	0.948	0.764	0.868	0.96	0.889	0.839	0.823
NCI-H2347	0.988	1.17	0.975	0.756	0.781	0.715	0.495	0.801	0.746	0.892	1.05	0.951	0.924	0.945	0.941	0.985	0.935	0.997	0.899	1.02
